Results as given in patent US20260285871A1, “Polymorphic Compounds and Uses Thereof” (TYRA BIOSCIENCES, INC., priority 2022, published 2026).

Key:
Format in all cases: physicochemical
[1] = Storage of solid form at RT, form followed by XRPD; details: storage at RT for about one month
Method: X-Ray Powder Diffraction (XRPD) Data Collection Strategy: XRPD patterns of samples were recorded at room temperature on Aeris X-ray diffractometer (Almelo, The Netherlands) using Cu Kα radiation (λ=1.54 Å) at 40 kV, 15 mA passing through a Ni monochromater. Data were collected in a continuous scan mode with a step size of 0.02° and dwell time of 149 s over an angular range of 3° to 40° 2θ. The sample was loaded on a zero-background holder and gently pressed by a clean glass slide to ensure coplanarity of the sample surface with the surface of the holder. Obtained diffractograms were analysed and plotted with HighScore Plus software (V 5.0; Almelo, The Netherlands).

[2] = Crystallization (polymorph) studies of compound 2: fast, reactive, slurry at 40° C., anti-solvent; solids analysed by XRPD; details: solvent 1,2 Prop Diol
Method: Forms I-XIII of compound 2 were prepared according to one of the crystallization methods described below, e.g., fast crystallization; reactive crystallization; slurry crystallization or anti-solvent crystallization.
Fast Crystallization Method: In a typical experiment, compound 2 (ca. 10 mg) was dissolved in minimum quantity the stated solvent while heating to 80° C. The resulted solution was allowed to cool down to room temperature. […]
Reactive Crystallization: Benzene sulfonic acid (BSA) was dissolved in THF to prepare a stock solution and used for all the reactive crystallization experiments. Compound A free base (ca. 30 mg) was dissolved in minimum quantity the stated solvent while heating to 80° C. The resultant compound A free base solutions were allowed to cooldown to RT and added one equivalent of BSA stock solution. It was observed that most of the reactions yielded precipitate. […]
Slurry Crystallization at 40° C. using Form I of compound 2: In a typical experiment, compound 2 (ca. 100 mg) was suspended in minimum quantity the stated solvent while heating to 40° C. The resulted slurries were allowed to stir at 40° C. for three days.
Anti-Solvent Crystallization: In a typical experiment, compound 2 (ca. 100 mg) was dissolved in solubilizing solvent. To that solution 200 μL anti-solvent was added slowly. These iterations were continued until the precipitation observed or maximum solvent quantity of ~15 mL.

[3] = Dynamic Vapor Sorption (DVS), moisture sorption/desorption; details: data not shown; for hygroscopicity suggested by vapor sorption data: DVS, 5% to 98% RH
Excerpt: Dynamic Vapor Sorption (DVS): Moisture sorption/desorption data were collected on a DVS-intrinsic vapor sorption analyser (Surface Measurement Systems NA, Allentown, PA, USA) and operating with DVS-intrinsic control software (Version 1.0.5.1). Samples were not dried prior to analysis. Sorption and desorption data were collected over a range from 5% to 98% relative humidity (RH) via 10% RH increments under a nitrogen purge. The equilibrium criterion used for analysis was less than 0.005% weight change in 10 min with a maximum equilibration time of 3 h.

For `C[C@@H](Oc1ccc2[nH]nc(-c3ccc(N4CC5(C4)CN(S(C)(=O)=O)C5)nc3)c2c1)c1c(Cl)cncc1Cl.O=S(=O)(O)c1ccccc1` [Form VIII of compound 2], the “solid form change during storage” value [1] was “transformed to Form I of compound 2”.
In the case of `C[C@@H](Oc1ccc2[nH]nc(-c3ccc(N4CC5(C4)CN(S(C)(=O)=O)C5)nc3)c2c1)c1c(Cl)cncc1Cl.O=S(=O)(O)c1ccccc1` [Compound 2], the “Anti-Solvent Crystallization Result” value ([2]; anti-solvent 4-Me-2-Pentanone) is reported as “Form-X”, the “Anti-Solvent Crystallization Result” value ([2]; anti-solvent DEE) is reported as “Form-XI” and the “Anti-Solvent Crystallization Result” value ([2]; anti-solvent EtOAc) is reported as “Form-XI”. For the same molecule, the “Anti-Solvent Crystallization Result” value ([2]; anti-solvent T-butyl-methyl-ether) was “Form-XI”.
In the case of `C[C@@H](Oc1ccc2[nH]nc(-c3ccc(N4CC5(C4)CN(S(C)(=O)=O)C5)nc3)c2c1)c1c(Cl)cncc1Cl.O=C(O)C(O)C(O)C(=O)O` [Form I of Compound 25], the “hygroscopicity suggested by vapor sorption data” value (“hygroscopicity suggested” below) [3] is reported as “moderately hygroscopic”.
In the case of `C[C@@H](Oc1ccc2[nH]nc(-c3ccc(N4CC5(C4)CN(S(C)(=O)=O)C5)nc3)c2c1)c1c(Cl)cncc1Cl` [Form II of Compound 5], the “hygroscopicity suggested” value [3] is reported as “moderately hygroscopic”.
In the case of `C[C@@H](Oc1ccc2[nH]nc(-c3ccc(N4CC5(C4)CN(S(C)(=O)=O)C5)nc3)c2c1)c1c(Cl)cncc1Cl` [Form I of Compound 24], the “stability suggested by vapor sorption / DVS data” value [3] is reported as “instability” and the “weight loss observed in the DVS data” value [3] is reported as “about 3.27%”.
For `Br.C[C@@H](Oc1ccc2[nH]nc(-c3ccc(N4CC5(C4)CN(S(C)(=O)=O)C5)nc3)c2c1)c1c(Cl)cncc1Cl` [Form II of Compound 12], the “hygroscopicity suggested” value [3] was “moderately hygroscopic”.
For `C[C@@H](Oc1ccc2[nH]nc(-c3ccc(N4CC5(C4)CN(S(C)(=O)=O)C5)nc3)c2c1)c1c(Cl)cncc1Cl.O=P(O)(O)O` [Form I of Compound 23], the “hygroscopicity suggested” value [3] was “hygroscopic”.
In the case of `C[C@@H](Oc1ccc2[nH]nc(-c3ccc(N4CC5(C4)CN(S(C)(=O)=O)C5)nc3)c2c1)c1c(Cl)cncc1Cl.O=C(O)CC(=O)O` [Form I of Compound 26], the “hygroscopicity suggested” value [3] is reported as “moderately hygroscopic” and the “weight loss observed in the DVS data” value [3] is reported as “about 2.1%”.
In the case of `C[C@@H](Oc1ccc2[nH]nc(-c3ccc(N4CC5(C4)CN(S(C)(=O)=O)C5)nc3)c2c1)c1c(Cl)cncc1Cl.O=C(O)/C=C/C(=O)O` (stereo in doubt) [Form II of Compound 3], the “hygroscopicity suggested” value [3] is reported as “moderately hygroscopic”.
With `C[C@@H](Oc1ccc2[nH]nc(-c3ccc(N4CC5(C4)CN(S(C)(=O)=O)C5)nc3)c2c1)c1c(Cl)cncc1Cl.Cl` [Form II of Compound 1] the “hygroscopicity suggested” value [3] was “moderately hygroscopic”.
